Molecular target: Hsp82 (Saccharomyces cerevisiae, UniProt P02829)
Assay: Hsp82 ATPase activity, pyruvate kinase/lactate dehydrogenase enzymatic coupling method (NADH absorbance at 340 nm)
Type: biochemical
Conditions: 1 μM Hsp82, 250 μM ATP, 37° C., PK/LDH coupled, initial rate
Description: The formation of ADP due to the ATPase activity of Hsp82 was used to develop another method for evaluating the enzymatic activity of this enzyme by application of an enzymatic coupling system involving pyruvate kinase (PK) and lactate dehydrogenase (LDH). In this kinetic-type spectrophotometric method, PK catalyses the formation of ATP and of pyruvate from phosphoenol pyruvate (PEP) and the ADP produced by Hsp82. The pyruvate formed, which is a substrate for LDH, is subsequently converted to lactate in the presence of NADH. In this case, the decrease in NADH concentration, measured through the decrease in absorbance at the wavelength of 340 nm, is proportional to the concentration of ADP produced by Hsp82.
The products tested are incubated in a reaction volume of 100 μl of buffer composed of 100 mM Hepes-NaOH (pH 7.5), 5 mM MgCl2, 1 mM DTT, 150 mM KCl, 0.3 mM NADH, 2.5 mM PEP and 250 μM ATP. This mixture is preincubated at 37° C. for 30 minutes before the addition of 3.77 units of LDH and 3.77 units of PK. The reaction is initiated by addition of the product to be evaluated, in varying concentrations, and of Hsp82, at the concentration of 1 μM. The enzymatic activity of Hsp82 is then measured continuously, in a microplate reader, at 37° C., at the wavelength of 340 nm. The initial rate of the reaction is obtained by measuring the slope of the tangent to the origin of the curve recorded. The enzymatic activity is expressed in μM of ADP formed per minute. The effect of the various products tested is expressed as capacity for inhibiting the ATPase activity according to the codification below: […]

Chain of Hsp82 (P02829 whole entry): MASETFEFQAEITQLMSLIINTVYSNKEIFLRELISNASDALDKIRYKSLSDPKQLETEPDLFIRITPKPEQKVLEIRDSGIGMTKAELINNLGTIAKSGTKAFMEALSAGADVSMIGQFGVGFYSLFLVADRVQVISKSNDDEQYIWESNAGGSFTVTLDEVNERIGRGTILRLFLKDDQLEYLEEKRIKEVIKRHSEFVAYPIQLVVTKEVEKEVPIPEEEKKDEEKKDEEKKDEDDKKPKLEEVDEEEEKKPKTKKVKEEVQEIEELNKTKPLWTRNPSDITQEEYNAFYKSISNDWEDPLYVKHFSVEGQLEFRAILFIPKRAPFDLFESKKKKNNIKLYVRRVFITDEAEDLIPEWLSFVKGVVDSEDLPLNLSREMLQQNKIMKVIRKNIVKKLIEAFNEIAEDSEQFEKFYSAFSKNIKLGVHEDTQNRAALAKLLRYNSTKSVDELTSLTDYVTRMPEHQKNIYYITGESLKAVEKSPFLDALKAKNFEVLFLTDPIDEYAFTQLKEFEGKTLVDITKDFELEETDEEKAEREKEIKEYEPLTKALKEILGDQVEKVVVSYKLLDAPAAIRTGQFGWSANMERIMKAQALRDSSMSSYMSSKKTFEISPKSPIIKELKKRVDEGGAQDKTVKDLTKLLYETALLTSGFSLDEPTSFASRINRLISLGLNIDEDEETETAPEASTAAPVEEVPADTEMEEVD

Q: With `O=C(NC1c2cccc(-c3nc4ccc(F)cc4[nH]3)c2-n2cccc21)c1ccnc2[nH]ccc12` (stereo not shown) [Example 1, 1H-pyrrolo[2,3-b]pyridine-4-carboxylic acid [5-(6-fluoro-1H-benzimidazol-2-yl)-9H-pyrrolo[1,2-a]indol-9-yl]amide] as the compound, how does the IC50 read?
A: < 1000 nM

Q: How did the IC50 turn out when `O=C(NC1c2cccc(-c3cnc4ccccc4c3)c2-n2cccc21)c1ccnc2[nH]ccc12` (stereo not shown) [Example 2, 1H-pyrrolo[2,3-b]pyridine-4-carboxylic acid (5-quinolin-3-yl-9H-pyrrolo[1,2-a]indol-9-yl)amide] was run?
A: 1000 to 10000 nM

Q: `O=C(NC1c2cccc(-c3nc4ccncc4[nH]3)c2-n2cccc21)c1ccnc2[nH]ccc12` (stereo not shown) [Example 3, 1H-pyrrolo[2,3-b]pyridine-4-carboxylic acid [5-(3H-imidazo[4,5-c]pyridin-2-yl)-9H-pyrrolo[1,2-a]indol-9-yl]amide] was tested. Which IC50 did it give?
A: < 1000 nM

Q: `O=C(NC1c2cccc(-c3nc4ccncc4[nH]3)c2-n2cccc21)c1cc(Cl)nc2[nH]ccc12` (stereo not shown) [Example 4, 6-chloro-1H-pyrrolo[2,3-b]pyridine-4-carboxylic acid [5-(3H-imidazo[4,5-c]pyridin-2-yl)-9H-pyrrolo[1,2-a]indol-9-yl]amide] was tested. Which IC50 did it give?
A: 1000 to 10000 nM

Source: patent US8178687B2, “Derivatives of pyrroloindole which are inhibitors of Hsp90, compositions containing same, and use thereof” (Sanofi-Aventis, priority 2009, dated 2012)
